Where a SMILES comes first, the peptide text is derived from it. Bridges are numbered along the chain shown (N, C = ends). [ ]: non-standard residue; d: D form. R8 = C=CCCCCCC[C@@](C)(N)C(=O)O; S5 = C=CCCC[C@](C)(N)C(=O)O
Target: GST-hDM2 (Homo sapiens, UniProt Q00987)
Assay: Competition ELISA IC50 (nM) | GST-hDM2
Source text: Table printed on a drawing sheet, FIGURE 5A
Head of the field: Competition ELISA IC50 (nM) | GST-hDM2
The patent's description of the figure: FIGS. 5A-F describe the results of a cell viability assay, a competition ELISA assay, GRIP assay, Kd data, p21 activation assay, fluorescence polarization competition binding and circular helicity data for exemplary peptidomimetic macrocycles of the invention.
First copying reader's note: First part of a table that continues on FIGS. 5B-F; the print is coarse, several cells hold replicate values separated by; or , and some values sit slightly off their row line.
Where the first naming reader finds the target: head: Competition ELISA IC50 (nM) | GST-hDM2

GST-hDM2, sequence (Q00987 whole entry, looked up): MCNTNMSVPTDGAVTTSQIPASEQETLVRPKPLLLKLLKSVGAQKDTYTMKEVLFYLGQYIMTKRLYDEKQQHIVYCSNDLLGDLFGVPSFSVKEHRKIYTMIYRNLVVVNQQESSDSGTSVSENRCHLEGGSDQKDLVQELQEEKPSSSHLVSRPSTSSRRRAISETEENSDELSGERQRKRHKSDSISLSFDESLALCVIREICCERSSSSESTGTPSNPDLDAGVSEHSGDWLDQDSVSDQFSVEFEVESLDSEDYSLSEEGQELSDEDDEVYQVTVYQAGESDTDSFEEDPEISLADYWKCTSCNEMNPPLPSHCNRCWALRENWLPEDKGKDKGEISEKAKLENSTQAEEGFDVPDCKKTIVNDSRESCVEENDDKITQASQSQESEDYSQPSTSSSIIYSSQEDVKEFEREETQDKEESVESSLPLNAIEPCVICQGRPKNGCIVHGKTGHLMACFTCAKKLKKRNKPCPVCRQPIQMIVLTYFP

IC50: 13.4 nM
SMILES: CC(=O)N[C@@H](CC(C)C)C(=O)N[C@@H](CO)C(=O)N[C@@H](CCC(N)=O)C(=O)N[C@@H](CCC(N)=O)C(=O)N[C@H](C(=O)N[C@@H](Cc1ccccc1)C(=O)N[C@]1(C)CCCCCCC=CCCC[C@@](C)(C(=O)N[C@@H](CCC(N)=O)C(=O)N[C@@H](CC(N)=O)C(N)=O)NC(=O)[C@H](CC(C)C)NC(=O)[C@H](CC(C)C)NC(=O)[C@H](CCCNC(=N)N)NC(=O)[C@H](Cc2c[nH]c3ccccc23)NC(=O)[C@H](CC(C)C)NC(=O)[C@H](CC(N)=O)NC1=O)[C@@H](C)O [SP-3, Ac-LSQQTF$r8NLWRLL$QN-NH2] (Ac-LSQQTF[R8]NLWRLL[S5]QN-NH2; staple 7-14 (inferred))
